This is an account of results in paper PMC9966667, “Permeability Assessment of a High-Throughput Mucosal Platform” (Pharmaceutics, 2023).

A short description of data set [1]: PermeaPad + mucus permeability assay (cystic fibrosis mucus model on PermeaPad 96-well plate). It counts as in vitro ADME. To be noted: for Effect of mucus on Papp: Papp vs. Papp mucus, significance at p < 0.05; for Effect of mucus on Papp / statistical significance of the difference in permeation with vs without mucus: Student's t-test; for Papp at 5 h: not told, PermeaPad + mucus model, donor 100 or 500 µM in 10 mM PB pH 7.4, 5% DMSO, single timepoint 5 h, mean (±SD), n>=3, read-out: Papp mucus ± SD • 10^6; for permeation in the presence of mucus versus without mucus: PermeaPad + mucus vs PermeaPad; for statistical significance of the difference in permeation with vs without mucus: p < 0.05. How it is done: The pathological mucus model produced by Bac3Gel Lda. was prepared as previously described. […] The mucin suspension was prepared in mQ water.
Next, 20 µL of the mucus mixture was pipetted into the donor compartment of the PermeaPad plate (i.e., PermeaPad + mucus, from here on). The donor plate was carefully shaken to homogeneously distribute the mucus over the entire surface of the well. This step is also useful to get rid of the air bubbles that can form during the mixing of the mucus reagents. Before running the permeation measurements, the mucus was allowed to crosslink overnight by storing the PermeaPad plate at 4 °C.
(§1) The permeability assay was conducted in the absence (i.e., PermeaPad) and presence (i.e., PermeaPad + mucus) of the pathological mucus model. Stock solutions of drugs were prepared at 10 mg/mL in DMSO; working solutions were prepared by diluting the stocks within soluble concentration ranges (either 100 or 500 µM) in a 10 mM phosphate buffer (PB) (pH 7.4, 5% DMSO). The donor compartments of the PermeaPad plate were then filled with 200 µL of the drug working solution, while the acceptor compartments were filled with 400 µL of PB buffer (5% DMSO). […] (1) Papp=dQ/dt/C0×A where dQ represents the quantity of drug expressed as moles permeated into the acceptor compartment at time t (18.000 s), C0 is the initial concentration in the donor compartment, and A is the area of the PermeaPad membrane (0.15 cm^2).
(§2) The concentration of the drug in each acceptor well was determined using a Varian HPLC equipped with a 410 autosampler and a C18 column (150 × 2 mm, […], 100) and detected on a Varian 320 MS TQ mass spectrometer equipped with an electrospray ionization (ESI) source operating in positive or negative mode. The detector was used in multiple-reaction monitoring (MRM). Mobile phases composed of acetonitrile and water, 0.1% formic acid, or ammonium acetate (5 mM, pH 6.6), were pumped at 200 µL/min, following a gradient program. The injection volume was 5 µL. Quantifications were achieved according to a seven-point calibration curve specific to each compound.
(§3) A minimum of three replicates were performed for each compound, with and without mucus. All the quantitative data are reported as the mean ± standard deviation (SD). Statistical significance was calculated by applying the Student’s t test; a p < 0.05 was considered to be statistically significant and is indicated with asterisks (i.e., * p < 0.05, ** p < 0.01, *** p < 0.001, **** p < 0.0001).

A short description of data set [2]: PermeaPad 96-well plate permeability assay (absence of mucus). To be noted: for Papp at 5 h: not told, pH 7.4, PermeaPad without mucus. It counts as in vitro ADME. The protocol:
as §1, §2, §3

Another data set concerns mucins. Also noted: method as in PMID 26169405, PMID 7535039, PMID 33405639. The following applies: polycationic drugs; cited from earlier work.
The mark [3] stands for this setting: donor 100 or 500 µM in 10 mM PB pH 7.4, 5% DMSO, single timepoint 5 h, mean (±SD), n>=3, read-out: Papp ± SD • 10^6.
[4] abbreviates: 5 h, extremes of measured range, trametinib value set because below limit of detection, read-out: apparent permeability (Papp).

Usually Papp stands for the rate of passage across a membrane or cell layer, normalised by area and donor concentration.

`CN(C)[C@@H]1C(O)=C(C(N)=O)C(=O)[C@@]2(O)C(O)=C3C(=O)c4c(O)cccc4[C@@](C)(O)[C@H]3C[C@@H]12` [Tetracycline]: in data set [1], the “Effect of mucus on Papp” value is recorded as “Reduced” and the Papp at 5 h was 0.2 ×10⁻⁶ cm/s.
For the molecule `CC(CCc1ccccc1)NCC(O)c1ccc(O)c(C(N)=O)c1` (centres unmarked) [Labetalol], the figures for the Papp at 5 h in data set [2] (setting [3]) and in data set [1] were 1.81 ×10⁻⁶ cm/s and 1.11 ×10⁻⁶ cm/s, respectively. Further, the “Effect of mucus on Papp” value in data set [1] is recorded as “Reduced”.
With `CC(=O)Nc1cccc(-n2c(=O)n(C3CC3)c(=O)c3c(Nc4ccc(I)cc4F)n(C)c(=O)c(C)c32)c1` [Trametinib], the “concentration in the acceptor compartment” value in data set [2] (PermeaPad, 5 h, HPLC-ESI-MS) was “below the limit of detection”. In data set [2] (setting [4]), the apparent permeability (Papp) at 5 h turned out to be 0.001 ×10⁻⁶ cm/s. In addition, in data set [1], the “Effect of mucus on Papp” value is given as “None”.
For the molecule `NC[C@H]1O[C@H](O[C@H]2[C@H](O)[C@@H](O[C@H]3O[C@H](CO)[C@@H](O)[C@H](N)[C@H]3O)[C@H](N)C[C@@H]2N)[C@H](N)C[C@@H]1O` [tobramycin], in the data set with mucins, the interaction with mucins entry was “strongly interact with mucins”.
Consider `NC(=O)c1nc(F)c[nH]c1=O` [Favipiravir], for which the apparent permeability (Papp) at 5 h in data set [2] (setting [3]) was 5.15 ×10⁻⁶ cm/s. Besides, in data set [1], the “Effect of mucus on Papp” value was “Increased”, the “permeation in the presence of mucus versus without mucus” value is on record as “higher permeation in the presence of mucus” and the Papp at 5 h is 6.18 ×10⁻⁶ cm/s.
On to `CC(C)(C)NCC(O)c1ccc(O)c(CO)c1` (centres unmarked) [Salbutamol], for which the Papp at 5 h in data set [2] (setting [3]) is 2.34 ×10⁻⁶ cm/s; in data set [1], 0.64 ×10⁻⁶ cm/s. For the same molecule, in data set [1], the “Effect of mucus on Papp” value is on record as “Reduced”.
The like results for `CCN(CC)CCOC(=O)c1ccc(N)cc1` [Procaine] were, in that order, 2.67 ×10⁻⁶ cm/s, 0.6 ×10⁻⁶ cm/s and “Reduced”.
On the same counts, the results for `CN(C)C(=O)COC(=O)Cc1ccc(OC(=O)c2ccc(NC(=N)N)cc2)cc1` [Camostat] are 2.16 ×10⁻⁶ cm/s, 0.81 ×10⁻⁶ cm/s and “Reduced”.
On the same counts, the results for `COC(=O)N[C@H](C(=O)N[C@@H](Cc1ccccc1)[C@@H](O)CN(Cc1ccc(-c2ccccn2)cc1)NC(=O)[C@@H](NC(=O)OC)C(C)(C)C)C(C)(C)C` [Atazanavir] are 0.19 ×10⁻⁶ cm/s, 0.13 ×10⁻⁶ cm/s and “None”.
Turning to `CC(C)(C)NC(=O)[C@@H]1C[C@@H]2CCCC[C@@H]2CN1C[C@@H](O)[C@H](Cc1ccccc1)NC(=O)[C@H](CC(N)=O)NC(=O)c1ccc2ccccc2n1` [Saquinavir], the figures for the apparent permeability (Papp) at 5 h in data set [2] (setting [3]) and in data set [1] were 0.08 ×10⁻⁶ cm/s and 0.01 ×10⁻⁶ cm/s, respectively. Besides, the “Effect of mucus on Papp” value in data set [1] is on record as “Reduced”.
On the same counts, the results for `CC(C)NCC(O)COc1cccc2ccccc12` (centres unmarked) [Propranolol] are 4.26 ×10⁻⁶ cm/s, 1.08 ×10⁻⁶ cm/s and “Reduced”.
The like results for `Nc1nc2c(ncn2COCCO)c(=O)[nH]1` [Acyclovir] were, in that order, 2.17 ×10⁻⁶ cm/s, 0.83 ×10⁻⁶ cm/s and “Reduced”.
Turning to `CCS(=O)(=O)N1CC(CC#N)(n2cc(-c3ncnc4[nH]ccc34)cn2)C1` [Baricitinib], the Papp at 5 h in data set [2] (setting [3]) turned out to be 3.06 ×10⁻⁶ cm/s. In addition, in data set [1], the “Effect of mucus on Papp” value is listed as “Reduced” and the Papp at 5 h stood at 0.87 ×10⁻⁶ cm/s.
The like results for `CCn1cc(C(=O)O)c(=O)c2cc(F)c(N3CCNCC3)cc21` [Norfloxacin] were, in that order, 1.7 ×10⁻⁶ cm/s, “None” and 1.61 ×10⁻⁶ cm/s.
colistin: in the data set with mucins, the interaction with mucins result is reported as “strongly interact with mucins”.
polymyxin: the interaction with mucins entry with mucins is given as “strongly interact with mucins”.
With `C[C@H]1[C@H](NC(=O)/C(=N\OC(C)(C)C(=O)O)c2csc(N)n2)C(=O)N1S(=O)(=O)O` [Aztreonam], the Papp at 5 h in data set [2] (setting [3]) was determined as 0.18 ×10⁻⁶ cm/s. Besides, in data set [1], the “Effect of mucus on Papp” value is listed as “None” and the apparent permeability coefficient (Papp) at 5 h was determined as 0.17 ×10⁻⁶ cm/s.
Consider `O=C(O)c1ccccc1O` [Salicylic acid], for which the Papp at 5 h in data set [2] (setting [3]) stood at 2.71 ×10⁻⁶ cm/s. Besides, in data set [1], the “Effect of mucus on Papp” value is on record as “None”, the “permeation in the presence of mucus versus without mucus” value was “higher permeation in the presence of mucus”, the “statistical significance of the difference in permeation with vs without mucus” value is reported as “not statistically significant” and the apparent permeability (Papp) at 5 h was determined as 4.89 ×10⁻⁶ cm/s.
As to `CC(C)Cc1ccc(C(C)C(=O)O)cc1` (centres unmarked) [Ibuprofen], the Papp at 5 h in data set [2] (setting [3]) is 0.94 ×10⁻⁶ cm/s. Moreover, in data set [1], the “Effect of mucus on Papp” value was “None”, the “permeation in the presence of mucus versus without mucus” value is recorded as “higher permeation in the presence of mucus”, the “statistical significance of the difference in permeation with vs without mucus” value is on record as “not statistically significant” and the apparent permeability coefficient (Papp) at 5 h came out at 1.2 ×10⁻⁶ cm/s.
In the case of `C=CC(=O)N1CCN(c2nc(=O)n(-c3c(C)ccnc3C(C)C)c3nc(-c4c(O)cccc4F)c(F)cc23)[C@@H](C)C1` [Sotorasib], the Papp at 5 h in data set [2] (setting [3]) was found to be 0.48 ×10⁻⁶ cm/s; in data set [1], 0.21 ×10⁻⁶ cm/s. The “Effect of mucus on Papp” value in data set [1] is recorded as “None”.
The like results for `CO[C@H]1/C=C/O[C@@]2(C)Oc3c(C)c(O)c4c(O)c(c(/C=N/N5CCN(C)CC5)c(O)c4c3C2=O)NC(=O)/C(C)=C\C=C\[C@H](C)[C@H](O)[C@@H](C)[C@@H](O)[C@@H](C)[C@H](OC(C)=O)[C@@H]1C` [Rifampicin] were, in that order, 0.7 ×10⁻⁶ cm/s, 0.71 ×10⁻⁶ cm/s and “None”.
As to `CCOC(=O)C1=C(COCCN)NC(C)=C(C(=O)OC)C1c1ccccc1Cl` (centres unmarked) [Amlodipine], the values for the apparent permeability coefficient (Papp) at 5 h in data set [2] (setting [3]) and in data set [1] were 0.66 ×10⁻⁶ cm/s and 0.35 ×10⁻⁶ cm/s, respectively. In data set [1], the “Effect of mucus on Papp” value is “None”.
In the case of `CC(C(=O)O)c1cccc(C(=O)c2ccccc2)c1` (centres unmarked) [Ketoprofen], the “permeation in the presence of mucus versus without mucus” value in data set [1] is reported as “higher permeation in the presence of mucus”.
With `O=C(Nc1c(Cl)cncc1Cl)c1ccc(OC(F)F)c(OCC2CC2)c1` [Roflumilast], the apparent permeability coefficient (Papp) at 5 h in data set [2] (setting [4]) worked out at 0.0079 ×10⁻⁶ cm/s; in data set [2] (setting [3]) it was 0.01 ×10⁻⁶ cm/s. Further, the “Effect of mucus on Papp” value in data set [1] is on record as “None”.
Consider `CC(=O)Nc1ccc(O)cc1` [Acetaminophen], for which, in data set [2] (setting [3]), the apparent permeability (Papp) at 5 h stood at 4.55 ×10⁻⁶ cm/s. In addition, in data set [1], the “Effect of mucus on Papp” value is on record as “Reduced” and the apparent permeability coefficient (Papp) at 5 h was 1.77 ×10⁻⁶ cm/s.
The like results for `CO[C@H]1/C=C/O[C@@]2(C)Oc3c(C)c(O)c4c(O)c(c5c(nc6cc(C)ccn65)c4c3C2=O)NC(=O)/C(C)=C\C=C\[C@H](C)[C@H](O)[C@@H](C)[C@@H](O)[C@@H](C)[C@H](OC(C)=O)[C@@H]1C` [Rifaximin] were, in that order, 0.09 ×10⁻⁶ cm/s, “None” and 0.08 ×10⁻⁶ cm/s.
